What is called IC50 is the concentration needed to halve the response being measured.

Bridge positions count the residues as written; N and C are the ends. Square brackets hold non-standard residues; d marks the D form. Peptide text beside a SMILES is read from it. * marks the point of attachment. Bip = N[C@@H](Cc1ccc(-c2ccccc2)cc1)C(=O)O; Phe(3-Me) = Cc1cccc(C[C@H](N)C(=O)O)c1; 3Pal = N[C@@H](Cc1cccnc1)C(=O)O; 4Pal = N[C@@H](Cc1ccncc1)C(=O)O; Cha = N[C@@H](CC1CCCCC1)C(=O)O; Cit = NC(=O)NCCC[C@H](N)C(=O)O; Carboxymethyl = O=C(O)C*; Orn = NCCC[C@H](N)C(=O)O; Aun = NCCCCCCCCCCC(=O)O; Dab = NCC[C@H](N)C(=O)O; Dap = NC[C@H](N)C(=O)O

T1 sequence (Q15116 25-288): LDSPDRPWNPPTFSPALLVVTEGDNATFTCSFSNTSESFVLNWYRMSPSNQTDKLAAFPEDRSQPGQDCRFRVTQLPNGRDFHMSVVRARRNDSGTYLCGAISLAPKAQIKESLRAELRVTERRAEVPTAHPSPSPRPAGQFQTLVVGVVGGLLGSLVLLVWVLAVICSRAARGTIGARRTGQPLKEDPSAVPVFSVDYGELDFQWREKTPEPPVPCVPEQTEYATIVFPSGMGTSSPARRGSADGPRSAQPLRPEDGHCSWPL

This experiment concerns the target T1, PD-1/PD-L1 interaction (PE-labeled human PD-L1-Ig binding to Jurkat cell line over-expressing human PD-1) (Homo sapiens, UniProt Q15116).
T1 construct: expressed in transfected cells; host or cells: Jurkat
The experiment is described as follows: Jurkat-PD-1 Cell Binding High-Content Screening Assay (CBA). The class given is cell-based. Conditions: Jurkat cell line over-expressing human PD-1; PE-labeled PD-L1-Ig 20 nM final; read-out: Jurkat hPD1-PDL1 IC50. In short, it runs like this:
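Human PD-L1-Ig carrying a covalent PE label on its Ig tag serves as the probe, applied at 20 nM final to compound-treated (2 h, 37° C) Jurkat-hPD-1 cells in medium with 10% fetal calf serum. After one hour, fixation and nuclear staining precede high-content image analysis.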
As to `CC(C)C[C@H]1NC(=O)[C@H](CCCN)NC(=O)[C@H](Cc2ccc(O)cc2)NC(=O)[C@H](Cc2ccc(-c3ccccc3)cc2)NC(=O)[C@H](Cc2ccc(O)cc2)NC(=O)[C@H](Cc2c[nH]c3ccccc23)NC(=O)[C@H](CC(=O)O)NC(=O)[C@H](Cc2ccc(OCC(=O)O)cc2)NC(=O)[C@H]([C@@H](C)O)NC(=O)CSC[C@@H](C(=O)N[C@@H](CCN)C(=O)NCCCCCCCCCCC(=O)O)NC(=O)[C@H]([C@@H](C)O)NC(=O)[C@H](C(C)C)NC(=O)[C@H](CC2CCCCC2)NC(=O)[C@H](CCN)NC1=O` [Compound 2728] ({CH2CO}-TY(Carboxymethyl)DWY[Bip]Y[Orn][dL][Dab][Cha]VTC[Dab][Aun]-OH; thioether N-14), the IC50 was found to be 17.4 nM.

Take `CC(C)C[C@H]1NC(=O)[C@H](CCCN)NC(=O)[C@H](Cc2ccc(O)cc2)NC(=O)[C@H](Cc2ccc(-c3ccccc3)cc2)NC(=O)[C@H](C(C)C)NC(=O)[C@H](Cc2c[nH]c3ccccc23)NC(=O)[C@H](CC(=O)O)NC(=O)[C@H](Cc2ccc(OCC(=O)O)cc2)NC(=O)[C@H]([C@@H](C)O)NC(=O)CSC[C@@H](C(=O)N[C@@H](CCN)C(=O)NCCCCCCCCCCC(=O)O)NC(=O)[C@H](CCCNC(N)=O)NC(=O)[C@H](C(C)C)NC(=O)[C@H](CC2CCCCC2)NC(=O)[C@H](CCN)NC1=O` [Compound 2729] ({CH2CO}-TY(Carboxymethyl)DWV[Bip]Y[Orn][dL][Dab][Cha]V[Cit]C[Dab][Aun]-OH; thioether N-14): the IC50 turned out to be 12.9 nM. As to `CC(C)C[C@H]1NC(=O)[C@H](CCCN)NC(=O)[C@H](Cc2ccc(O)cc2)NC(=O)[C@H](Cc2ccc(-c3ccccc3)cc2)NC(=O)[C@H](Cc2ccc(O)cc2)NC(=O)[C@H](Cc2c[nH]c3ccccc23)NC(=O)[C@H](CC(=O)O)NC(=O)[C@H](Cc2ccc(OCC(=O)O)cc2)NC(=O)[C@H]([C@@H](C)O)NC(=O)CSC[C@@H](C(=O)N[C@@H](CCN)C(=O)NCCCCCCCCCCC(=O)O)NC(=O)[C@H](CCCNC(N)=O)NC(=O)[C@H](C(C)C)NC(=O)[C@H](CC2CCCCC2)NC(=O)[C@H](CCN)NC1=O` [Compound 2730] ({CH2CO}-TY(Carboxymethyl)DWY[Bip]Y[Orn][dL][Dab][Cha]V[Cit]C[Dab][Aun]-OH; thioether N-14), the IC50 came to 15.5 nM. For the molecule `Cc1cccc(C[C@@H]2NC(=O)[C@H](CC(=O)O)NC(=O)[C@H](Cc3ccc(OCC(=O)O)cc3)NC(=O)[C@H](CN)NC(=O)CSC[C@@H](C(=O)N[C@@H](CCN)C(=O)NCCCCCCCCCCC(=O)O)NC(=O)[C@H]([C@@H](C)O)NC(=O)[C@H](C(C)C)NC(=O)[C@H](CC3CCCCC3)NC(=O)[C@H](CCN)NC(=O)[C@@H](CC(C)C)NC(=O)[C@H](CCCN)NC(=O)[C@H](Cc3ccc(OCC(=O)O)cc3)NC(=O)[C@H](Cc3ccc(-c4ccccc4)cc3)NC(=O)[C@H](C(C)C)NC2=O)c1` [Compound 2731] ({CH2CO}-[Dap]Y(Carboxymethyl)D[Phe(3-Me)]V[Bip]Y(Carboxymethyl)[Orn][dL][Dab][Cha]VTC[Dab][Aun]-OH; thioether N-14), the IC50 is 18.6 nM. As to `Cc1cccc(C[C@@H]2NC(=O)[C@H](CC(=O)O)NC(=O)[C@H](Cc3ccc(OCC(=O)O)cc3)NC(=O)[C@H](CN)NC(=O)CSC[C@@H](C(=O)N[C@@H](CCN)C(=O)NCCCCCCCCCCC(=O)O)NC(=O)[C@H]([C@@H](C)O)NC(=O)[C@H](C(C)C)NC(=O)[C@H](CC3CCCCC3)NC(=O)[C@H](CCN)NC(=O)[C@@H](CC(C)C)NC(=O)[C@H](CCCN)NC(=O)[C@H](Cc3ccc(OCC(=O)O)cc3)NC(=O)[C@H](Cc3ccc(-c4ccccc4)cc3)NC(=O)[C@H](Cc3ccc(OCC(=O)O)cc3)NC2=O)c1` [Compound 2732] ({CH2CO}-[Dap]Y(Carboxymethyl)D[Phe(3-Me)]Y(Carboxymethyl)[Bip]Y(Carboxymethyl)[Orn][dL][Dab][Cha]VTC[Dab][Aun]-OH; thioether N-14), the IC50 came out at 21.2 nM. In the case of `Cc1cccc(C[C@@H]2NC(=O)[C@H](CC(=O)O)NC(=O)[C@H](Cc3ccncc3)NC(=O)[C@H](Cc3ccc(OCC(=O)O)cc3)NC(=O)CSC[C@@H](C(=O)N[C@@H](CCN)C(=O)NCCCCCCCCCCC(=O)O)NC(=O)[C@H]([C@@H](C)O)NC(=O)[C@H](C(C)C)NC(=O)[C@H](CC3CCCCC3)NC(=O)[C@H](CCN)NC(=O)[C@@H](CC(C)C)NC(=O)[C@H](CCCN)NC(=O)[C@H](Cc3ccc(O)cc3)NC(=O)[C@H](Cc3ccc(-c4ccccc4)cc3)NC(=O)[C@H](C(C)C)NC2=O)c1` [Compound 2733] ({CH2CO}-Y(Carboxymethyl)[4Pal]D[Phe(3-Me)]V[Bip]Y[Orn][dL][Dab][Cha]VTC[Dab][Aun]-OH; thioether N-14), the 50% inhibitory concentration (IC50) amounted to 42.2 nM. `Cc1cccc(C[C@@H]2NC(=O)[C@H](CC(=O)O)NC(=O)[C@H](Cc3ccncc3)NC(=O)[C@H](Cc3ccc(OCC(=O)O)cc3)NC(=O)CSC[C@@H](C(=O)N[C@@H](CCN)C(=O)NCCCCCCCCCCC(=O)O)NC(=O)[C@H]([C@@H](C)O)NC(=O)[C@H](C(C)C)NC(=O)[C@H](CC3CCCCC3)NC(=O)[C@H](CCN)NC(=O)[C@@H](CC(C)C)NC(=O)[C@H](CCCN)NC(=O)[C@H](Cc3ccc(O)cc3)NC(=O)[C@H](Cc3ccc(-c4ccccc4)cc3)NC(=O)[C@H](Cc3ccc(O)cc3)NC2=O)c1` [Compound 2734] ({CH2CO}-Y(Carboxymethyl)[4Pal]D[Phe(3-Me)]Y[Bip]Y[Orn][dL][Dab][Cha]VTC[Dab][Aun]-OH; thioether N-14): the IC50 turned out to be 27.2 nM. The value for `Cc1cccc(C[C@@H]2NC(=O)[C@H](CC(=O)O)NC(=O)[C@H](Cc3ccc(OCC(=O)O)cc3)NC(=O)[C@H](CN)NC(=O)CSC[C@@H](C(=O)N[C@H](CC(=O)NCCCCCCCCCCC(=O)O)C(N)=O)NC(=O)[C@H]([C@@H](C)O)NC(=O)[C@H](C(C)C)NC(=O)[C@H](CC3CCCCC3)NC(=O)[C@H](CCN)NC(=O)[C@@H](CC(C)C)NC(=O)[C@H](CCCN)NC(=O)[C@H](Cc3ccc(O)cc3)NC(=O)[C@H](Cc3ccc(-c4ccccc4)cc3)NC(=O)[C@H](C(C)C)NC2=O)c1` [Compound 2735] ({CH2CO}-[Dap]Y(Carboxymethyl)D[Phe(3-Me)]V[Bip]Y[Orn][dL][Dab][Cha]VTC[dD](Aun)-NH2; thioether N-14) was 72.4 nM; that for `Cc1cccc(C[C@@H]2NC(=O)[C@H](CC(=O)O)NC(=O)[C@H](Cc3ccc(OCC(=O)O)cc3)NC(=O)[C@H](CN)NC(=O)CSC[C@@H](C(=O)N[C@H](CC(=O)NCCCCCCCCCCC(=O)O)C(N)=O)NC(=O)[C@H]([C@@H](C)O)NC(=O)[C@H](C(C)C)NC(=O)[C@H](CC3CCCCC3)NC(=O)[C@H](CCN)NC(=O)[C@@H](CC(C)C)NC(=O)[C@H](CCCN)NC(=O)[C@H](Cc3ccc(O)cc3)NC(=O)[C@H](Cc3ccc(-c4ccccc4)cc3)NC(=O)[C@H](Cc3ccc(O)cc3)NC2=O)c1` [Compound 2736] ({CH2CO}-[Dap]Y(Carboxymethyl)D[Phe(3-Me)]Y[Bip]Y[Orn][dL][Dab][Cha]VTC[dD](Aun)-NH2; thioether N-14) was 114 nM. Consider `Cc1cccc(C[C@@H]2NC(=O)[C@H](CC(=O)O)NC(=O)[C@H](Cc3ccc(OCC(=O)O)cc3)NC(=O)[C@H](CN)NC(=O)CSC[C@@H](C(=O)N[C@@H](CCN)C(=O)NCCCCCCCCCCC(=O)O)NC(=O)[C@H]([C@@H](C)O)NC(=O)[C@H](C(C)C)NC(=O)[C@H](CC3CCCCC3)NC(=O)[C@H](CCN)NC(=O)[C@@H](CC(C)C)NC(=O)[C@H](CCCN)NC(=O)[C@H](Cc3ccc(O)cc3)NC(=O)[C@H](Cc3ccc(-c4ccccc4)cc3)NC(=O)[C@H](CC(C)C)NC2=O)c1` [Compound 2737] ({CH2CO}-[Dap]Y(Carboxymethyl)D[Phe(3-Me)]L[Bip]Y[Orn][dL][Dab][Cha]VTC[Dab][Aun]-OH; thioether N-14), for which the IC50 is 28.8 nM.

As to `Cc1cccc(C[C@@H]2NC(=O)[C@H](CC(=O)O)NC(=O)[C@H](Cc3ccc(O)cc3)NC(=O)[C@H](CC(N)=O)NC(=O)CSC[C@@H](C(=O)N[C@@H](CCN)C(=O)NCCCCCCCCCCC(=O)O)NC(=O)[C@H]([C@@H](C)O)NC(=O)[C@H](C(C)C)NC(=O)[C@H](CC3CCCCC3)NC(=O)[C@H](CCN)NC(=O)[C@@H](CC(C)C)NC(=O)[C@H](CCCN)NC(=O)[C@H](Cc3ccc(O)cc3)NC(=O)[C@H](Cc3ccc(-c4ccccc4)cc3)NC(=O)[C@H](C(C)C)NC2=O)c1` [Compound 2738] ({CH2CO}-NYD[Phe(3-Me)]V[Bip]Y[Orn][dL][Dab][Cha]VTC[Dab][Aun]-OH; thioether N-14), the IC50 was 63.2 nM. Turning to `Cc1cccc(C[C@@H]2NC(=O)[C@H](CC(=O)O)NC(=O)[C@H](Cc3ccc(OCC(=O)O)cc3)NC(=O)[C@H](CC(N)=O)NC(=O)CSC[C@@H](C(=O)N[C@@H](CCN)C(=O)NCCCCCCCCCCC(=O)O)NC(=O)[C@H]([C@@H](C)O)NC(=O)[C@H](C(C)C)NC(=O)[C@H](CC3CCCCC3)NC(=O)[C@H](CCN)NC(=O)[C@@H](CC(C)C)NC(=O)[C@H](CCCN)NC(=O)[C@H](Cc3ccc(O)cc3)NC(=O)[C@H](Cc3ccc(-c4ccccc4)cc3)NC(=O)[C@H](C(C)C)NC2=O)c1` [Compound 2739] ({CH2CO}-NY(Carboxymethyl)D[Phe(3-Me)]V[Bip]Y[Orn][dL][Dab][Cha]VTC[Dab][Aun]-OH; thioether N-14), the IC50 amounted to 18.9 nM. In the case of `Cc1cccc(C[C@@H]2NC(=O)[C@H](CC(=O)O)NC(=O)[C@H](Cc3cccnc3)NC(=O)[C@H](CC(N)=O)NC(=O)CSC[C@@H](C(=O)N[C@@H](CCN)C(=O)NCCCCCCCCCCC(=O)O)NC(=O)[C@H]([C@@H](C)O)NC(=O)[C@H](C(C)C)NC(=O)[C@H](CC3CCCCC3)NC(=O)[C@H](CCN)NC(=O)[C@@H](CC(C)C)NC(=O)[C@H](CCCN)NC(=O)[C@H](Cc3ccc(O)cc3)NC(=O)[C@H](Cc3ccc(-c4ccccc4)cc3)NC(=O)[C@H](C(C)C)NC2=O)c1` [Compound 2740] ({CH2CO}-N[3Pal]D[Phe(3-Me)]V[Bip]Y[Orn][dL][Dab][Cha]VTC[Dab][Aun]-OH; thioether N-14), the IC50 was 19.7 nM.

Source of the values: patent US20260022142A1, “MACROCYCLIC IMMUNOMODULATORS” (Bristol-Myers Squibb Company, priority 2022, published 2026).
